Values quoted from earlier work in US8431724B2, “Iejimalid analoga and uses thereof” (Studiengesellschaft Kohle mbH, priority 2007, dated 2013).

Legend:
P388 leukemia = settings: Kobayashi's report
[1] = system: panel of 60 standard human cancer cell lines; settings: NCI dataset 2005

CO[C@@H]1/C=C(C)/C=C/[C@@H](C)/C=C/C(=O)O[C@H](/C(C)=C/C=C(\C)CNC(=O)[C@H](COS(=O)(=O)[O-])NC=O)[C@@H](C)/C=C/C=C/[C@@H](OC)CC/C=C(C)\C=C\C1.[Na+] [compound 3, Iejimalide C]
in vivo activity against P388 leukemia (P388 leukemia): potent in vivo activity

CO[C@@H]1/C=C(C)/C=C/[C@@H](C)/C=C(\C)C(=O)O[C@H](/C(C)=C/C=C(\C)CNC(=O)[C@H](COS(=O)(=O)[O-])NC=O)[C@@H](C)/C=C/C=C/[C@@H](OC)CC/C=C(C)\C=C\C1.[Na+] [compound 4, Iejimalide D]
in vivo activity against P388 leukemia (P388 leukemia): potent in vivo activity

Iejimalide A
GI50 [1]: low nanomolar range | TGI [1]: low nanomolar range
